Where two headings read alike, the source gives them in different places.
Columns and labels:
Assay type in all cases: cell-based
[1] = system: Pseudomonas aeruginosa ATCC 27853; conditions: for Antimicrobial Activity (MIC) P. aeruginosa: ATCC 27853, broth microdilution CLSI M07-A9 (1a,1b,2a,2b) or broth dilution EUCAST (1c,1d,2c,2d), 0.5-256 µg/mL tested, biological triplicate, no visual growth; for MIC P. aeruginosa ATCC 27853: Table S3
Description: (§1) The minimal inhibitory concentration (MIC) of peptides 1a, 1b, 2a, and 2b were determined by broth microdilution according to the Clinical Laboratory Standard Institute (CLSI) method […]-A9. The MICs of the peptides 1c, 1d, 2c, and 2d were determined by broth dilution according to the European Committee for Antimicrobial Susceptibility Testing (EUCAST). Final concentrations of 0.5-256 μg/mL were tested against a panel of reference bacteria-S. aureus (ATCC 9144), S. epidermidis (1457), E. coli (ATCC 25922), and P. aeruginosa (ATCC 27853). Each strain was tested in biological triplicate. The MIC values were defined as the lowest concentration of the peptides resulting in no visual growth.

[2] = system: Staphylococcus aureus ATCC 9144; conditions: for Antimicrobial Activity (MIC) S. aureus: ATCC 9144, broth microdilution CLSI M07-A9 (1a,1b,2a,2b) or broth dilution EUCAST (1c,1d,2c,2d), 0.5-256 µg/mL tested, biological triplicate, lowest concentration with no visual growth; for MIC S. aureus ATCC 9144: Table S3
Description: as §1

[3] = system: Staphylococcus epidermidis 1457; conditions: for MIC S. epidermidis 1457: Table S3; for Antimicrobial Activity (MIC) S. epidermidis: strain 1457, broth microdilution CLSI M07-A9 (1a,1b,2a,2b) or broth dilution EUCAST (1c,1d,2c,2d), 0.5-256 µg/mL tested, biological triplicate, no visual growth
Description: as §1

[4] = system: Escherichia coli ATCC 25922; conditions: for Antimicrobial Activity (MIC) E. coli: ATCC 25922, broth microdilution CLSI M07-A9 (1a,1b,2a,2b) or broth dilution EUCAST (1c,1d,2c,2d), 0.5-256 µg/mL tested, biological triplicate, no visual growth; for MIC E. coli ATCC 25922: Table S3
Description: as §1

[5] = technical replicate 1, biological replicate BR1
[6] = technical replicate 1, biological replicate BR2
[7] = technical replicate 1, biological replicate BR3
[8] = technical replicate 2, biological replicate BR1
[9] = technical replicate 2, biological replicate BR2
[10] = technical replicate 2, biological replicate BR3
[11] = technical replicate 3, biological replicate BR1
[12] = technical replicate 3, biological replicate BR2
[13] = technical replicate 3, biological replicate BR3

Substance | Antimicrobial Activity (MIC) P. aeruginosa [1] [µg/mL] | MIC P. aeruginosa ATCC 27853 [1, 5] [µg/mL] | MIC P. aeruginosa ATCC 27853 [1, 6] [µg/mL] | MIC P. aeruginosa ATCC 27853 [1, 7] [µg/mL] | MIC P. aeruginosa ATCC 27853 [1, 8] [µg/mL] | MIC P. aeruginosa ATCC 27853 [1, 9] [µg/mL] | MIC P. aeruginosa ATCC 27853 [1, 10] [µg/mL] | MIC P. aeruginosa ATCC 27853 [1, 11] [µg/mL] | MIC P. aeruginosa ATCC 27853 [1, 12] [µg/mL] | MIC P. aeruginosa ATCC 27853 [1, 13] [µg/mL] | Antimicrobial Activity (MIC) S. aureus [2] [µg/mL] | MIC S. aureus ATCC 9144 [2, 5] [µg/mL] | MIC S. aureus ATCC 9144 [2, 6] [µg/mL] | MIC S. aureus ATCC 9144 [2, 7] [µg/mL] | MIC S. aureus ATCC 9144 [2, 8] [µg/mL] | MIC S. aureus ATCC 9144 [2, 9] [µg/mL] | MIC S. aureus ATCC 9144 [2, 10] [µg/mL] | MIC S. aureus ATCC 9144 [2, 11] [µg/mL] | MIC S. aureus ATCC 9144 [2, 12] [µg/mL] | MIC S. aureus ATCC 9144 [2, 13] [µg/mL] | further results
N3-PEG200-RWWRF [1a, azidopeptide N3-PEG200-RWWRF, PEG200-linked, amidated C-terminus] | 256 | 256 | 256 | 256 | 256 | 256 | 256 | 256 | 256 | 256 | 64 | 64 | 64 | 64 | 64 | 64 | 64 | 64 | 64 | 64 | MIC S. epidermidis 1457 [3, 5]: 32 µg/mL; MIC S. epidermidis 1457 [3, 6]: 32 µg/mL; MIC S. epidermidis 1457 [3, 7]: 32 µg/mL; MIC S. epidermidis 1457 [3, 8]: 32 µg/mL; MIC S. epidermidis 1457 [3, 9]: 32 µg/mL; MIC S. epidermidis 1457 [3, 10]: 32 µg/mL; MIC S. epidermidis 1457 [3, 11]: 32 µg/mL; MIC S. epidermidis 1457 [3, 12]: 32 µg/mL; MIC S. epidermidis 1457 [3, 13]: 32 µg/mL; Antimicrobial Activity (MIC) S. epidermidis [3]: 32 µg/mL; Antimicrobial Activity (MIC) E. coli [4]: 256 µg/mL; MIC E. coli ATCC 25922 [4, 5]: 128 µg/mL; MIC E. coli ATCC 25922 [4, 6]: 256 µg/mL; MIC E. coli ATCC 25922 [4, 7]: 256 µg/mL; MIC E. coli ATCC 25922 [4, 8]: 128 µg/mL; MIC E. coli ATCC 25922 [4, 9]: 256 µg/mL; MIC E. coli ATCC 25922 [4, 10]: 256 µg/mL; MIC E. coli ATCC 25922 [4, 11]: 128 µg/mL; MIC E. coli ATCC 25922 [4, 12]: 256 µg/mL; MIC E. coli ATCC 25922 [4, 13]: 256 µg/mL
N3-PEG400-RBBRF [2b, azidopeptide N3-PEG400-RBBRF, B = biphenylalanine, amidated C-terminus] | 256 | 128 | 256 | 256 | 128 | 256 | 256 | 128 | 256 | 256 | 32 | 16 | 32 | 16 | 16 | 32 | 32 | 16 | 32 | 32 | MIC S. epidermidis 1457 [3, 5]: 16 µg/mL; MIC S. epidermidis 1457 [3, 6]: 16 µg/mL; MIC S. epidermidis 1457 [3, 7]: 16 µg/mL; MIC S. epidermidis 1457 [3, 8]: 16 µg/mL; MIC S. epidermidis 1457 [3, 9]: 16 µg/mL; MIC S. epidermidis 1457 [3, 10]: 16 µg/mL; MIC S. epidermidis 1457 [3, 11]: 16 µg/mL; MIC S. epidermidis 1457 [3, 12]: 16 µg/mL; MIC S. epidermidis 1457 [3, 13]: 16 µg/mL; Antimicrobial Activity (MIC) S. epidermidis [3]: 16 µg/mL; Antimicrobial Activity (MIC) E. coli [4]: 128 µg/mL; MIC E. coli ATCC 25922 [4, 5]: 128 µg/mL; MIC E. coli ATCC 25922 [4, 6]: 128 µg/mL; MIC E. coli ATCC 25922 [4, 7]: 128 µg/mL; MIC E. coli ATCC 25922 [4, 8]: 128 µg/mL; MIC E. coli ATCC 25922 [4, 9]: 128 µg/mL; MIC E. coli ATCC 25922 [4, 10]: 128 µg/mL; MIC E. coli ATCC 25922 [4, 11]: 128 µg/mL; MIC E. coli ATCC 25922 [4, 12]: 128 µg/mL; MIC E. coli ATCC 25922 [4, 13]: 128 µg/mL

— publication PMC8698454, “Anti-Colonization Effect of Au Surfaces with Self-Assembled Molecular Monolayers Functionalized with Antimicrobial Peptides on S. epidermidis” (Antibiotics, 2021)
